In the supplement of paper PMC10949913:

Key:
Test in all cases: area under concentration-response curve (viability) (AUC (a.u.)); higher = less active
Conditions in all cases: 48 h
CU-ACC1 = system: CU-ACC1
Method in brief: (§1)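 For each of three adrenocortical carcinoma cell lines, 500–1,000 cells/well were placed in 5 µL medium in 1,536-well plates. A 23 nL volume of every library compound was added at 11 concentrations. Following 48 h, a 15-minute room-temperature CellTiter-Glo step preceded luminescence reading, with signals normalised per plate to vehicle and empty-well controls. AC50 and area under the curve were derived by curve fitting, retaining only inhibitory or non-responding curve classes.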

NCI-H295R = system: NCI-H295R
Method in brief: as §1

CU-ACC2 = system: CU-ACC2
Method in brief: as §1

Row | Compound | area under concentration-response curve (CU-ACC1) | area under concentration-response curve (NCI-H295R) | area under concentration-response curve (CU-ACC2)
1 | C[C@]12COC(=O)C[C@@H]1CC[C@@H]1[C@@H]2CC[C@@]2(C)[C@H]1CC[C@]2(C)O | 448 | 447 | 482
2 | CN(Cc1cnc2nc(N)nc(N)c2n1)c1ccc(C(=O)N[C@@H](CCC(=O)O)C(=O)O)cc1 | 508 | 539 | 615
3 | Nc1nc(OC(c2ccc(-c3cccc(F)c3)cc2)C(F)(F)F)cc(-c2ccc(C[C@H](N)C(=O)O)cc2)n1 (stereo not given in full) | 546 | 555 | 519
4 | CNCCN(C)Cc1c[nH]nc1-c1ccc(O[C@H]2C[C@H](OCCC3CCOCC3)C2)cc1 | 520 | 546 | 512
5 | C[C@@H]1[C@H]\2[C@H](O)[C@H]3[C@H](N(C)C)\C(=C(C(N)=O)/C(=O)[C@@]3(O)\C(=C2C(=O)C4=C(O)C=CC=C14)O)O | 406 | 403 | 325
6 | COc1ccc(C(=O)N2CCN(c3ccc4c(c3)CCC(=O)N4)CC2)cc1OC | 458 | 554 | 562
7 | COC1=C2OC(=O)\C=C/C2=CC3=C1OC=C3 | 420 | 475 | 482
8 | Cn1cc(-c2ccc(F)c(C(F)(F)F)c2)nc1C1CCN(c2ncnc3[nH]ncc23)CC1 | 471 | 510 | 555
9 | O=C(O)C(=O)Nc1cccc(-c2nnn[nH]2)c1 | 547 | 553 | 645
10 | O=C1NC(O)CCN1[C@@H]1O[C@H](CO)[C@@H](O)[C@H]1O (stereo not given in full) | 539 | 585 | 646
11 | CC1SC/2=C(C(O)=O)/C(=O)C3=CC(=C(C=C3N12)N4CCN(CC4)C\C5=C(C)\OC(=O)O5)F (stereo not given) | 586 | 565 | 612
12 | Nc1ncnc2c1c(COc1cccc(Cl)c1)nn2C1CCOCC1 | 461 | 525 | 578
13 | CCC(=O)[N-]S(=O)(=O)c1ccc(-c2c(-c3ccccc3)noc2C)cc1.[Na+] | 549 | 595 | 656
14 | CCC1(c2ccc(N)cc2)CCC(=O)NC1=O (stereo not given) | 591 | 568 | 631
15 | Cc1cn(-c2cc(NC(=O)c3ccc(C)c(Nc4nccc(-c5cccnc5)n4)c3)cc(C(F)(F)F)c2)cn1 | 438 | 417 | 506
16 | O=C(O)CCNc1cc(N2CCc3ccccc3CC2)nc(-c2cccnc2)n1 | 538 | 533 | 636
17 | O=S(=O)([O-])CCS | 539 | 551 | 518
18 | Nc1ncnc2nc(-c3ccc(N4CCOCC4)nc3)cc(-c3cccc(Br)c3)c12 | 492 | 459 | 525
19 | CN1C(=O)C(Cc2c[nH]c3ccccc23)NC1=S (stereo not given) | 543 | 568 | 639
20 | COc1ccc(CNC(=O)c2cc(-c3cncc(Cl)c3)cnc2-c2ccccn2)nc1OC | 430 | 407 | 412

Row | Compound | area under concentration-response curve (CU-ACC1) | area under concentration-response curve (NCI-H295R) | area under concentration-response curve (CU-ACC2)
21 | O=C(c1cncc(Br)c1)N1CCC(N2CCCC2)CC1 | 489 | 528 | 440
22 | OC(=O)CNC(=O)\C1=C(/O)C2=CC=CC=C2N(CC3=CC=CC=C3)C1=O | 441 | 529 | 539
23 | Cn1cc(-c2ccc3nnc(C(F)(F)c4ccc5ncccc5c4)n3n2)cn1 | 478 | 502 | 583
24 | CCOC1=CC=C(C=C1)N2C(=O)C3=CC=CN=C3/N=C2/[C@@H](C)N(CC4=CC=CN=C4)C(=O)CC5=CC=C(F)C(=C5)C(F)(F)F | 516 | 569 | 606
25 | CN1C(=O)\C(=C/C(=C1/NC2=C(F)C=C(I)C=C2)C(=O)NOCCO)C | 335 | 550 | 519
26 | CC(C)[C@H](CO)Nc1nc(Nc2ccc(C(=O)O)c(Cl)c2)c2ncn(C(C)C)c2n1 | 529 | 594 | 626
27 | NC/1=N/[C@]2(COC[C@H]2CS1)C3=CC(=CC=C3F)NC(=O)C4=NC=C(F)C=C4 | 499 | 490 | 569
28 | N[S+](=O)([O-])c1cc2c(cc1Cl)NC(C(Cl)Cl)N[S+]2(=O)[O-] (stereo not given) | 477 | 536 | 591
29 | CCCCCCNC(=O)N1\C=C(F)/C(=O)NC1=O | 513 | 589 | 633
30 | CCCCN(CCCC)CC(O)c1cc(Cl)cc2c1-c1ccc(Cl)cc1/C2=C/c1ccc(Cl)cc1 (stereo not given) | 546 | 582 | 631
31 | N#CC1(c2ccc(NC(=O)c3cccnc3NCc3ccncc3)cc2)CCCC1 | 547 | 545 | 531
32 | Nc1cccc2c1CN([C@H]1CCC(=O)NC1=O)C2=O | 454 | 498 | 544
33 | COC(=O)/C=C/C(=O)N(O)CCCCNCc1ccc(COC(=O)Nc2cccc3ccccc23)cc1 | 208 | 225 | 245
34 | COC(=O)[C@@H](N)CCCNC(=N)N[N+](=O)[O-] | 520 | 557 | 610
35 | Nc1ncnc2c1ncn2[C@@H]1O[C@H](CO)[C@@H](O)[C@@H]1O | 496 | 515 | 582
36 | COc1nc(C)cnc1N[S+](=O)([O-])c1cccnc1-c1ccc(-c2nnco2)cc1 | 520 | 509 | 600
37 | Oc1ccc(/C=C/c2cc(O)cc(O)c2)cc1 | 482 | 547 | 574
38 | CN(CCOc1ccc(N[S+](C)(=O)[O-])cc1)CCc1ccc(N[S+](C)(=O)[O-])cc1 | 541 | 586 | 637
39 | CN1CCN(C(=O)c2ccc(-c3ccc4c(C=O)c(O)ccc4c3)s2)CC1 | 499 | 556 | 612
40 | CN1C(=O)/C=C(/NCCN(CCO)CCCC2=CC=C(C=C2)[N+]([O-])=O)N(C)C1=O | 544 | 586 | 643
